Reference: patent publication US6740636B2 (priority 2000, dated 2004)

Experiments:
[1] = system: allogeneic heart transplants; assay: Histology, immunohistochemistry (ED1) and rejection score of allogeneic heart transplants 3 days after transplantation; format: in vivo, rat
Experimental: Transplanted hearts were removed under deep anesthesia, quickly blotted free of blood, weighed, and then processed as needed for histology and immunohistochemistry. The organs were cut into 1-mm slices and either immersion-fixed in 4% formaldehyde in phosphate buffered saline (PBS) pH 7.35, (PBS: 99 mM NaH2PO4, 108 mM NaH2PO4 and 248 mM NaCl) for 24 h or fixed in methacarn for 8 h and embedded in paraffin. Light microscopy was performed on 3 μm sections stained by periodic acid-Schiff or Goldner-Elastica. Light microscopy was performed on allogeneic heart transplants 3 days after transplantation.
The ED1 monoclonal antibody (Serotec/Camon) was used on methacarn fixed paraffin embedded tissue (3 μm) to stain for rat monocytes/macrophage cells. An alkaline phosphatase anti-alkaline phosphatase detection system was used for visualization (Dako). Controls that omit the first or second antibody for each section were performed for negative staining. […]
Mild acute rejection (score: 1) was characterized by a sparse interstitial mononuclear infiltrate often accentuated in perivascular spaces. […] The rejection score was calculated for every tissue block and an average score was calculated from the different blocks for every transplanted heart as rejection processes tended to be focal.

[2] = system: recipient Lewis rats given donor ACI rat grafts; assay: Heterotopic heart transplant rejection model (ACI donor, Lewis recipient); format: in vivo; settings: cyclosporin A only
From the text: In this assay an increase in allograft survival time corresponds to a decrease in heart transplant rejection in the recipient Lewis rats given donor ACI rat grafts.
Adult male, specific pathogen-free ACI (RT1a) and Lewis (RT1l) rats (Charles River, Boston, Mass.) weighing 200 to 250 g were used as donors and recipients, respectively, in these studies. Vascularized cardiac allografts were heterotopically transplanted into the abdomen of recipient rats using a modification (Nisco, S. et al., (1994), supra) of the technique of Ono and Lindsay (Ono, K. et al., (1969), supra). […] Abdominal allografts were palpated on a daily basis to assess graft function, and rejection was deemed complete when palpable ventricular contractions ceased.
The transplanted hearts were evaluated daily for signs of rejection over the course of the study.

For cyclosporin A, the “immunohistology for ED1-positive monocytes/macrophages in allogeneic heart transplants” value [1] was “inflammatory cell infiltrate was focal and was composed primarily of ED-1 positive cells”, the “mean allograft survival time” value ([2]; 2.5 mg/kg by gavage once per day for duration of study) was 7.3±0.5 days and the “mean allograft survival time” value ([2]; 10 mg/kg by gavage once per day for four days) was 12.9±0.7 days.
